In this test the test system is dithiothreitol-insensitive PAF choline phosphotransferase (PAF-CPT). As to the kind of experiment: PAF-CPT activity assay on leukocyte homogenate. The format is biochemical. The settings on record: rabbit leukocyte homogenate; Figure 8. The method, then:
The experiment on the inhibitory effect of each compound of interest against the washed rabbit platelets (WRPs) aggregation was carried out as per the already described method. The platelets were from male New Zealand white rabbits (about 20), individually housed in stainless steel cages in an air-conditioned room (19 ± 1 °C, 55 ± 5% humidity on a 12/12 h artificial light/dark cycle). Blood samples were drawn from the main ear artery. Microliters of PAF in a final concentration of about 10^–10 M were added to the cuvette of the aggregometer, and the height of the platelet aggregation was monitored. […] Dithiothreitol-insensitive PAF choline phosphotransferase, lyso-PAF:acetyl-CoA acetyltransferase and PAF-acetylhydrolase activity assays were performed on the homogenates of rabbit leukocytes while the activity of lipoprotein-associated phospholipase A2 was assessed on plasma as previously described. […] All results were expressed as mean ± standard deviation (SD). […] Data were analyzed using a statistical software package (SPSS for Windows, 16.0, 2007, SPSS Inc., Chicago, IL, USA) and Microsoft Excel 2007. […]

One substance from article PMC10574351, “First-Row Transition Metal Complexes Incorporating the 2-(2′-pyridyl)quinoxaline Ligand (pqx), as Potent Inflammatory Mediators: Cytotoxic Properties and Biological Activities against the Platelet-Activating Factor (PAF) and Thrombin” (Molecules, 2023) can be followed below.

Take [Fe(pqx)Cl2]2 [Complex 6]: the “inhibition of the specific activity of PAF-CPT” value is listed as “inhibit, in a dose-dependent way”.
